Key:
[1] = test system: 3D spheroid-cultured nerve cells (human iPSC-derived nerve cells and human-derived primary cultured astrocytes); assay: Calcium assay in 3D spheroid-cultured nerve cells (number of calcium spikes); type: cell-based; conditions: for relative value (log 2) of a change in number of the calcium spikes (DMSO = 0) / relative value of the number of the calcium spikes (DMSO set to 100%): cultured 5 weeks; for relative value (log 2) of a change in number of the calcium spikes (DMSO = 0): Experimental Examples 4-9, FIG. 4-9
Excerpt: Human iPSC-derived nerve cells (Excitatory Neurons, Elixirgen Scientific, Inc.) and human-derived primary cultured astrocytes (ScienCell Research Laboratories, Inc.) were mixed so that the number of cells per well was 8,000 for the nerve cells and 8,000 for the astrocytes, and seeded on a plate for producing a spheroid. As the culture medium, Neurobasal Plus (Thermo Fisher Scientific, Inc.) to which B-27 Plus Supplement (Thermo Fisher Scientific, Inc.), Glutamax (Thermo Fisher Scientific, Inc.), 200 μM ascorbic acid (FUJIFILM Wako Pure Chemical Corporation), and a 10% Neuron Culture medium (FUJIFILM Wako Pure Chemical Corporation) had been added was used. Subsequently, the cells were cultured for 6 weeks and a calcium assay which will be described later was performed.
In the case of the 3D spheroid-cultured nerve cells, each spheroid was transferred to a plate for measurement, a calcium-sensitive fluorescent dye (Cal-520AM, (AAT Bioquest, Inc.)), Pluronic F-127 (AAT Bioquest, Inc.), and the drug were added to the culture medium, and the fluorescence was measured at intervals of 0.5 seconds for 20 minutes using a fluorescence plate reader to measure the calcium spikes.
By setting the proportion of the change in number of the calcium spikes in a case where dimethyl sulfoxide (DMSO) used as a solvent for the drug was added to 0%, in a case where the number of the calcium spikes increased due to the addition of the drug, the value is shown to be positive, and in a case where the number of the calcium spikes decreased due to the addition of the drug, the value is shown to be negative.
A calcium assay was performed in the presence of a drug, using spheroids with different numbers of cells, and the drug responsiveness of the nerve cells was examined. Human iPSC-derived nerve cells (Excitatory Neurons, Elixirgen Scientific, Inc.) and human-derived primary cultured astrocytes (ScienCell Research Laboratories, Inc.) were mixed so that the number of cells per well was 8,000 for the nerve cells and 8,000 for the astrocytes, 4,000 for the nerve cells and 4,000 for the astrocytes, or 2,000 for the nerve cells and 2,000 for the astrocytes, and seeded on a plate for producing a spheroid. As the culture medium, Neurobasal Plus (Thermo Fisher Scientific, Inc.) to which B-27 Plus Supplement (Thermo Fisher Scientific, Inc.), Glutamax (Thermo Fisher Scientific, Inc.), 200 μM ascorbic acid (FUJIFILM Wako Pure Chemical Corporation), and a 10% Neuron Culture medium (FUJIFILM Wako Pure Chemical Corporation) had been added was used. Subsequently, the cells were cultured for 5 weeks, and a calcium assay was performed in the same manner as in Experimental Example 1. Chlorpromazine was used as the drug.
The values in the graph indicate the mean value±the standard deviation. The horizontal axis of the graph indicates the concentration of chlorpromazine in the culture medium, and the vertical axis of the graph indicates a relative value of the number of the calcium spikes in a case where dimethyl sulfoxide (DMSO) used as a solvent for the drug was added, with the number of the calcium spikes set to 100%. […] 0% indicates a state in which the calcium spikes completely disappear.
A calcium assay was performed in the same manner as in Experimental Example 2, except that the drug was changed to GABA and the number of cells constituting the spheroid was changed to 16,000 or 4,000, and the drug responsiveness of the nerve cells was examined.

[2] = test system: 2D-cultured nerve cells (human iPSC-derived nerve cells and human-derived primary cultured astrocytes); assay: Calcium assay in 2D-cultured nerve cells (number of calcium spikes); type: cell-based; conditions: cultured 6 weeks, Experimental Example 1, FIG. 1
Method: Human iPSC-derived nerve cells (Excitatory Neurons, Elixirgen Scientific, Inc.) and human-derived primary cultured astrocytes (ScienCell Research Laboratories, Inc.) were seeded in a 384-well plate so that the number of cells per well was 10,000 for the nerve cells and 2,500 for the astrocytes. As the culture medium, Neurobasal Plus (Thermo Fisher Scientific, Inc.) to which B-27 Plus Supplement (Thermo Fisher Scientific, Inc.), Glutamax (Thermo Fisher Scientific, Inc.), 200 µM ascorbic acid (FUJIFILM Wako Pure Chemical Corporation), and a 10% Neuron Culture medium (FUJIFILM Wako Pure Chemical Corporation) had been added was used. Subsequently, the cells were cultured for 6 weeks and a calcium assay which will be described later was performed.
A calcium assay was performed in the presence of a drug to examine the drug responsiveness of the 2D-cultured nerve cells and the 3D spheroid-cultured nerve cells. Chlorpromazine was used as the drug.
In the case of the 2D-cultured nerve cells, a calcium-sensitive fluorescent dye (Cal-520AM, AAT Bioquest, Inc.) and a drug were added to the culture medium, and the fluorescence was measured at intervals of 0.5 seconds for 20 minutes using a fluorescence plate reader to measure the calcium spikes.
FIG. 1 is a graph showing the measurement results. The values in the graph indicate the mean value±the standard deviation. […]

[3] = spheroid of 4,000 cells, compared with 16,000 cells
[4] = spheroid of 4,000 cells, Experimental Examples 2-3, FIG. 2-3, chlorpromazine at 1 μM and 3 μM
[5] = spheroid of 8,000 cells, Experimental Examples 2-3, FIG. 2-3, chlorpromazine at 1 μM and 3 μM
[6] = spheroid of 16,000 cells, Experimental Examples 2-3, FIG. 2-3, chlorpromazine at 1 μM and 3 μM

SMILES	relative value (log 2) of a change in number of the calcium spikes (DMSO = 0) [1, 3]	relative value of the number of the calcium spikes (DMSO set to 100%) [1, 4]	relative value of the number of the calcium spikes (DMSO set to 100%) [1, 5]	relative value of the number of the calcium spikes (DMSO set to 100%) [1, 6]	other results
N#Cc1cc2c(cc1[N+](=O)[O-])=NC(=O)C(=O)N=2 [CNQX, 6-cyano-7-nitroquinoxaline-2,3-dione]	the action was exhibited at a lower concentration and a stronger action was exhibited at 4,000 cells in a concentration-dependent manner				
NCCCC(=O)O [GABA, γ-aminobutyric acid]	the action was exhibited at a lower concentration and a stronger action was exhibited at 4,000 cells in a concentration-dependent manner				
CN1CCc2cc3c(cc2[C@H]1[C@@H]1OC(=O)c2c1ccc1c2OCO1)OCO3 [bicuculine]	drug responsiveness was exhibited in a concentration-dependent manner	an increase in the number of the calcium spikes was observed in a concentration-dependent manner	a significant response was not observed	an increase in the number of the calcium spikes was not observed at any concentration	relative value of the number of the calcium spikes (DMSO set to 100%) ([1]; spheroid of 8,000 cells, drug at 30 μM, Experimental Example 3, FIG. 3): a tendency of an increase in the number of the calcium spikes was observed; relative value (log 2) of a change in number of the calcium spikes (DMSO = 0) ([1]; spheroid of 16,000 cells): no drug response was observed
NC(=O)N1c2ccccc2C=Cc2ccccc21 [carbamazepine]	the action was exhibited at a lower concentration and a stronger action was exhibited at 4,000 cells in a concentration-dependent manner				
CN(C)CCCN1c2ccccc2Sc2ccc(Cl)cc21 [chlorpromazine, Chlorpromazine]	the action was exhibited at a lower concentration and a stronger action was exhibited at 4,000 cells in a concentration-dependent manner	showed a concentration-dependent response	did not show a concentration-dependent response	did not show a concentration-dependent response	number of the calcium spikes (proportion of change vs DMSO) ([2]; 2D culture, 10,000 nerve cells and 2,500 astrocytes per well): the number of the calcium spikes decreased in a drug concentration-dependent manner; concentration at which the calcium spikes disappeared ([2]; 2D culture): 3 µM; change in number of the calcium spikes (vs DMSO) ([1]; 3D spheroid, 8,000 nerve cells + 8,000 astrocytes, cultured 6 weeks, Experimental Example 1, FIG. 1): no change in number of the calcium spikes was observed at any drug concentration
NCCc1ccc(O)c(O)c1 [dopamine]	the action was exhibited at a lower concentration and a stronger action was exhibited at 4,000 cells in a concentration-dependent manner				

Reference: patent US20250283873A1, “NERVOUS SYSTEM CELL-CONTAINING SPHEROID, METHOD FOR PRODUCING NERVOUS SYSTEM CELL-CONTAINING SPHEROID, AND METHOD FOR EVALUATING TEST SUBSTANCE” (Ricoh Company, Ltd., priority 2024, published 2025)
